Experimental data: US9474763B2, “Compositions and methods for amelioration and prevention of drug-induced toxicity” (priority 2012, dated 2016)
Like-named read-outs stand apart in the source and are kept apart here.

What was measured:
[1] = tested on: ConA-activated splenocytes; experiment: IFN-γ secretion by ConA-activated splenocytes from treated mice (ELISA); type: cell-based; settings: FIG. 5; groups A, B, C, D of Table 24; 5 μg ConA, 20 h; p=NS
Experimental: After mice were sacrificed, spleens from five mice from each group were taken and splenocytes were isolated by the following procedure: Isolation of splenocytes: Spleens were stored in RPMI-1640 medium supplemented with FCS. Spleens were crushed through a 70-μm nylon cell strainer (Falcon) and centrifuged (1,250 rpm for 7 min.). Red blood cells were lysed in 1 ml of cold 155 mM ammonium chloride lysis buffer. Splenocytes were washed and resuspended in 1 ml of RPMI supplemented with FCS. The viability of cells as assessed by trypan blue exclusion exceeded 90%. Next, splenocytes (1×10^6 per mouse, per well, in duplicates) were moved into a 24 well plate containing RPMI-1640 supplemented with 10% FCS, 1% penicillin/streptomycin (P/S), 1% glutamine, 1% sodium pyruvate and 1% non-essential amino acid. […] After incubation cells from all wells were moved to Eppendorff tubes and centrifuged for 5 minutes. Then supernatants were collected and freezed in −80° C. until assayed for IFN-γ by ELISA. Cytokine determination: Levels of IFN-γ were determined by “sandwich” ELISA using commercial kit according to the manufacturer's instructions (Quantikine, R&D Systems, Minneapolis, Minn., USA).

[2] = tested on: toxicity induced by APAP; experiment: Liver biopsy histology (H&E) 24 h after APAP administration; type: in vivo, mice
Experimental: In addition, liver biopsies were performed. For histopathology, livers from individual mice were fixed in 10% formaldehyde solution and kept at room temperature until use. The tissue blocks were then embedded in paraffin, […] sections were cut and stained with hematoxylin and eosin (H&E) for morphological examination. […] Improved liver architecture with no evidence for cellular damage and necrosis can be seen in all treated groups.

[3] = tested on: toxicity induced by APAP; settings: for effect on liver enzymes serum levels: Example 2, Tables 3 and 4, 0.1-0.4 mg/mouse with APAP 4 mg; for beneficial effect on acetaminophen-induced liver toxicity: mice, administered together with, or following, large dosage of acetaminophen
Experimental: IB was tested for its effect on toxicity induced by APAP in comparison to NAC using the following procedure: Mice were allocated into four groups of six mice each, as described in Table 1 below. The mice received sub-lethal hepatotoxic doses of APAP, causing liver damage equivalent to consumption of approximately 10 gr APAP (20 caplets of 500 mg) per 70 kg man.
Food was taken on the afternoon (18:00) of Day 0. Mice were orally administered APAP, APAP+IB or APAP+NAC 15 h hours later (9:00 next morning, Day 1) by gavage administration. A total of 350 μl were administered, containing the different components in the desired concentrations in PBS. Food was returned 2 h after APAP administration (Day 1). For all groups, mice were weighted daily, and blood samples were taken 24 h hours after APAP administration (Day 2). Serum levels of the liver enzymes aspartate aminotransferase (AST) and alanine aminotransferase (ALT) were measured using a Reflovet® Plus clinical chemistry analyzer (Roche Diagnostics, GmbH, Mannheim, Germany). Serum samples were diluted before the measurements, as needed.
The following combinations were tested using the same procedure described in Example 1 above, and compared to 4 mg APAP+3 or 3.5 mg NAC: […]
This combination was tested for its effect on toxicity induced by APAP using the procedure described in Example 1 above. […]
Mice were treated according to the procedure describe in Example 1 above.

[4] = Body weight of fasted mice given APAP (weight ratio / difference between days); type: in vivo
From the text: Table 9 presents the effect of each combination on body weight loss, as determined by the ratio of the mice body weight between Day 0 and Day 2.
Table 12 presents the effect of each combination on body weight loss, as determined by the ratio of the mice body weight between Day 0 and Day 2 and by the difference in the mice body weight between Day 1 (immediately after administration of APAP with the different combinations and before food was returned) and Day 2.
Table 18 presents the effect of each combination on body weight, as determined by the difference in the mice body weight between Day 1 (immediately after administration of APAP with the different combinations and before food was returned) and Day 2.
This combination was tested for its effect on toxicity induced by APAP using the procedure described in Example 1 above with several modifications, as described below. Mice were allocated into four groups of six mice each, as detailed in Table 19 below. Food was taken on the afternoon (18:00) of Day 0. Mice were orally administered APAP 15 hours later (9:00 next morning, Day 1) by gavage administration. NAC was administered PO with APAP. MSM+IB were administered 1.5 h later. Following another 1.5 h, PC was administered. Food was returned 3.5 h after APAP administration (Day 1). Weight was determined three times: on Day 0 before food was taken, after over-night fasting (Day 1, just before APAP administration) and before sacrifice (Day 2, 24 hours after APAP administration).

[5] = Table 2, serum 24 h after APAP, PO, APAP 4 mg/mouse alone or + NAC 3 mg/mouse
[6] = Table 3, 24 h, PO, APAP 4 mg/mouse alone or + NAC 3 mg/mouse
[7] = Table 4, 24 h, PO, APAP 4 mg/mouse alone or + NAC 3.5 mg/mouse
[8] = Table 6, 24 h, PO, APAP 4 mg/mouse alone or + NAC 3.5 mg/mouse
[9] = Table 8, 24 h, PO, APAP 4 mg/mouse alone or + NAC 3 mg/mouse
[10] = Table 11, 24 h, PO, per mouse APAP 4 mg, NAC 3.5 mg, PC 0.9 mg after 3 h
[11] = Table 14, 24 h, PO, APAP 4 mg/mouse alone or + NAC 3.5 mg, PC 0.9 mg after 3 h
[12] = Table 14, 24 h, PO, APAP 4.6 mg/mouse alone or + NAC 3.5 mg, PC 0.9 mg after 3 h
[13] = Table 17, 24 h, PO, per mouse APAP 4 mg, NAC 3.5 mg, MSM 1.5 mg
[14] = Table 20, 24 h, PO, APAP 7 mg/mouse alone or + NAC 3.5 mg/mouse
[15] = Table 23, 24 h, PO, per mouse APAP 4 mg, MSM 0.15 mg, IB 0.1 mg
[16] = Table 27, 24 h, PO, per mouse APAP 4.6 mg, NAC/Cys/Met 3.5 mg, PC 0.9 mg, MSM 0.2 mg, IB 0.1 mg
[17] = Table 30, APAP 4.6 mg with NAC/Cys/Met 3.5 mg, MSM 0.1 mg + IB 0.1 mg after 1.5 h, PC 0.9 mg after 3 h
[18] = Table 33, 24 h, PO, per mouse APAP 4.6 mg, NAC/Cys/Met 3.5 mg
[19] = Table 12, per mouse APAP 4 mg, NAC 3.5 mg, PC 0.9 mg after 3 h
[20] = Table 15, APAP 4 mg/mouse alone or + NAC 3.5 mg, PC 0.9 mg after 3 h
[21] = Table 15, APAP 4.6 mg/mouse alone or + NAC 3.5 mg, PC 0.9 mg after 3 h
[22] = Table 21, APAP 7 mg/mouse alone or + NAC 3.5 mg/mouse

CC(=O)Nc1ccc(O)cc1 [APAP, N-(4-hydroxyphenyl)acetamide]
IFN-γ levels secreted by ConA-activated splenocytes [1]: 259 pg/mL | histological liver sections ([2]; FIG. 1, groups of Table 5, 24 h after APAP 4 mg/mouse): diffuse damage to hepatocytes | histological liver sections ([2]; FIG. 2, groups of Table 7, 24 h after APAP 4 mg/mouse): diffuse damage to hepatocytes | histological liver sections ([2]; FIG. 3, groups of Table 10, 24 h after APAP 4 mg/mouse): diffuse damage to hepatocytes | histological liver sections ([2]; FIG. 4, groups of Table 16, 24 h after APAP 4 mg/mouse): diffuse damage to hepatocytes | histological liver sections ([2]; FIG. 6, groups of Table 26, 24 h after APAP 4.6 mg/mouse): diffuse damage to hepatocytes | histological liver sections ([2]; FIG. 7, groups of Table 29, 24 h after APAP 4.6 mg/mouse): diffuse damage to hepatocytes | histological liver sections ([2]; FIG. 8, groups of Table 32, 24 h after APAP 4.6 mg/mouse): diffuse damage to hepatocytes | ALT (average ± std. dev.) [3, 5]: 14,360 ± 4,370.52 IU/L | AST (average ± std. dev.) [3, 5]: 18,920.00 ± 12,192.04 IU/L | ALT (average ± std. dev.) [3, 6]: 5,617.50 ± 1,832.77 IU/L | AST (average ± std. dev.) [3, 6]: 3,672.67 ± 1,965.99 IU/L | ALT (average ± std. dev.) [3, 7]: 8,880.00 ± 2,624.31 IU/L | AST (average ± std. dev.) [3, 7]: 5,848.67 ± 1,993.43 IU/L | ALT (average ± std. dev.) [3, 8]: 7,790.0 ± 2,175.9 IU/L | AST (average ± std. dev.) [3, 8]: 4,883.3 ± 1,549.4 IU/L | ALT (average ± std. dev.) [3, 9]: 6,421.67 ± 2,914.38 IU/L | AST (average ± std. dev.) [3, 9]: 3,686.67 ± 2,168.08 IU/L | ALT (average ± std. dev.) [3, 10]: 7,530.00 ± 2,339.06 IU/L | AST (average ± std. dev.) [3, 10]: 4,988.67 ± 878.44 IU/L | ALT (average ± std. dev.) [3, 11]: 5,739.25 ± 2,536.44 IU/L | AST (average ± std. dev.) [3, 11]: 4,374.00 ± 2,384.21 IU/L | ALT (average ± std. dev.) [3, 12]: 7,772.50 ± 1,771.00 IU/L | AST (average ± std. dev.) [3, 12]: 6,310.00 ± 2,127.07 IU/L | ALT (average ± std. dev.) [3, 13]: 9,040 ± 3,472.64 IU/L | AST (average ± std. dev.) [3, 13]: 6,560 ± 2,618.34 IU/L | ALT (average ± std. dev.) [3, 14]: 20,160.00 ± 9,678.28 IU/L | AST (average ± std. dev.) [3, 14]: 20,001.00 ± 11,998.16 IU/L | ALT (average ± std. dev.) [3, 15]: 8,918.00 ± 2,955.74 IU/L | AST (average ± std. dev.) [3, 15]: 6,586.67 ± 4,204.58 IU/L | AST (average ± std. dev.) ([3]; Table 25, 24 h, PO, per mouse APAP 4 mg, MSM 0.25 mg, IB 0.1 mg): 4,303.33 ± 2,163.30 IU/L | ALT (average ± std. dev.) [3, 16]: 10285.00 ± 4435.22 IU/L | AST (average ± std. dev.) [3, 16]: 7796.00 ± 5000.46 IU/L | ALT (average ± std. dev.) [3, 17]: 11210.83 ± 7589.19 IU/L | AST (average ± std. dev.) [3, 17]: 10577.33 ± 11375.63 IU/L | ALT (average ± std. dev.) [3, 18]: 9002.50 ± 4211.03 IU/L | AST (average ± std. dev.) [3, 18]: 5684.00 ± 2307.64 IU/L | decrease in body weight during the two days of the experiment ([4]; Example 4, Table 9, APAP 4 mg/mouse only): 6% | decrease in body weight during the two days of the experiment ([4]; Example 8, Table 28, APAP 4.6 mg only): more than 8% | decrease in body weight during the two days of the experiment ([4]; Example 8, Table 31, APAP 4.6 mg only): more than 8% | decrease in body weight during the two days of the experiment ([4]; Example 8, Table 34, APAP 4.6 mg only): more than 6% | Weight ratio Day 0-Day 2 ([4]; Table 9, APAP 4 mg/mouse alone or + NAC 3 mg/mouse, PO): 94.17% | Weight difference Day 1 − Day 2 [4, 19]: 1.17 | Weight ratio Day 1-Day 2 [4, 19]: 105% | Weight difference Day 1 − Day 2 [4, 20]: 2.07 | Weight ratio Day 1-Day 2 [4, 20]: 108% | Weight difference Day 1 − Day 2 [4, 21]: 1.02 | Weight ratio Day 1-Day 2 [4, 21]: 104% | Weight difference Day 1 − Day 2 ([4]; Table 18, per mouse APAP 4 mg, NAC 3.5 mg, MSM 1.5 mg): 1.05 | Weight difference Day 1 − Day 2 [4, 22]: −0.45 | Weight ratio Day 1-Day 2 [4, 22]: 98% | Weight ratio Day 0-Day 2 ([4]; Table 28, per mouse APAP 4.6 mg, NAC/Cys/Met 3.5 mg, PC 0.9 mg, MSM 0.2 mg, IB 0.1 mg): 91.59% | Weight ratio Day 0-Day 2 ([4]; Table 31, APAP 4.6 mg with NAC/Cys/Met 3.5 mg, MSM 0.1 mg + IB 0.1 mg after 1.5 h, PC 0.9 mg after 3 h): 91.23% | Weight ratio Day 0-Day 2 ([4]; Table 34, per mouse APAP 4.6 mg, NAC/Cys/Met 3.5 mg): 93.26%

COc1cc([C@H]2Oc3ccc([C@H]4Oc5cc(O)cc(O)c5C(=O)[C@@H]4O)cc3O[C@@H]2CO)ccc1O [IA, Isosilybin A]
effect on liver enzymes serum levels [3]: ineffective in reducing liver enzymes serum levels | beneficial effect on acetaminophen-induced liver toxicity [3]: did not show a beneficial effect

COc1cc([C@@H]2Oc3cc([C@H]4Oc5cc(O)cc(O)c5C(=O)[C@@H]4O)ccc3O[C@H]2CO)ccc1O [silybin B]
effect on liver enzymes serum levels [3]: ineffective in reducing liver enzymes serum levels | beneficial effect on acetaminophen-induced liver toxicity [3]: did not show a beneficial effect
